# Assay results published in patent US5140009A (Tap Pharmaceuticals, Inc., priority 1990, dated 1992).
# Numbered stars: 1 amine (or outer) side, 2 acyl side, 3 side chain; on linkers, the order of the positions; unused ones are H or OH. Square brackets hold non-standard residues; d marks the D form. Side chains are listed from the residue outwards. Peptide text beside a SMILES is read from it. * marks the point of attachment. Propanoyl(3-(4-F-phenyl)) = O=C(CCc1ccc(F)cc1)*; Phe(4-Cl) = N[C@@H](Cc1ccc(Cl)cc1)C(=O)O; X10 = O=C([C@@H](Cc1cncs1)N[*:1])[*:2]; 1Nal = N[C@@H](Cc1cccc2ccccc12)C(=O)O; d1Nal = N[C@H](Cc1cccc2ccccc12)C(=O)O; Lys(iPr) = CC(C)NCCCC[C@H](N)C(=O)O; NMeY = CN[C@@H](Cc1ccc(O)cc1)C(=O)O; Benzoyl(4-F) = O=C(c1ccc(F)cc1)*; d2Thi = N[C@H](Cc1cccs1)C(=O)O; NHPhenethyl = c1ccc(CCN*)cc1; Nicotinoyl = O=C(c1cccnc1)*; X12 = O=C(c1ccc(F)c(Cl)c1)*; Morpholide = C1CN(*)CCO1; Orn = NCCC[C@H](N)C(=O)O; CO = O=C([*:1])[*:2]; azaGly = NNC(=O)O
# Target: T1, LHRH receptors (Rattus norvegicus, UniProt P30969)
# T1 construct: Pituitary membranes containing LHRH receptors are prepared in batches from quick-frozen rat pituitaries; tissue Hilltop Labs; host or cells: rat pituitary membranes
# T1 sequence (P30969 1-327): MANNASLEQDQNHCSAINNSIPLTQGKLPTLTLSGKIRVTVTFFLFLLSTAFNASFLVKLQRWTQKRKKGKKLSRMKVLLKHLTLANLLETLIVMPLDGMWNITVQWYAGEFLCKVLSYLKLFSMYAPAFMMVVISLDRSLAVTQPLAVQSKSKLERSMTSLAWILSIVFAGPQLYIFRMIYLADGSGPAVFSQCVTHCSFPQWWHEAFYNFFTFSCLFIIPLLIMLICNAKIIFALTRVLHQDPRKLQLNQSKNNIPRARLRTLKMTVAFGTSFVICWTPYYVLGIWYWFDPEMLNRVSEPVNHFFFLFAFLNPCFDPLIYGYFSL
# Assay: Receptor Binding (radioligand receptor binding assay)
# Settings: Receptor Binding pkI, table 4; rat pituitary membranes, radioligand 50 pM, 2 hours at 4° C.
row,Structure (SMILES),Ki [pM]
1,"CC(C)C[C@H](NC(=O)[C@@H](Cc1c[nH]c2ccccc12)NC(=O)[C@H](Cc1ccc(O)cc1)N(C)C(=O)[C@H](CO)NC(=O)[C@@H](Cc1c[nH]c2ccccc12)NC(=O)[C@@H](Cc1ccccc1)NC(=O)NCCc1ccccc1)C(=O)N[C@@H](CCCNC(=N)N)C(=O)N1CCC[C@H]1C(=O)N[C@H](C)C(N)=O [Compound 234, N-(alpha-Phenethylaminocarbonyl)-D-Phe-D-Trp-Ser-NMeTyr-D-Trp-Leu-Arg-Pro-D-AlaNH2] ({NHPhenethyl-CO}-[dF][dW]S[NMeY][dW]LRP[dA]-NH2)",398

# Same assay, conditions: table 4; rat pituitary membranes, radioligand 50 pM, 2 hours at 4° C.; read-out: Receptor Binding pkI (converted)
row,Structure (SMILES),Ki [pM]
1,"CC(C)C[C@H](NC(=O)[C@@H](CCCCNC(=O)N1CCOCC1)NC(=O)[C@H](Cc1ccc(O)cc1)N(C)C(=O)[C@H](CO)NC(=O)[C@@H](Cc1cccc2ccccc12)NC(=O)CCc1ccc(F)cc1)C(=O)N[C@@H](CCCNC(=N)N)C(=O)N1CCC[C@H]1C(=O)N[C@H](C)C(N)=O [Compound 210, N-(3-(4-Fluorophenyl)propionyl)-D-1-Nal-Ser-NMeTyr-D-Lys(N-epsilon-morpholinecarbonyl)-Leu-Arg-Pro-D-AlaNH2] ({Propanoyl(3-(4-F-phenyl))}-[d1Nal]S[NMeY][dK]([CO-Morpholide])LRP[dA]-NH2)",8.91
2,"CC(C)C[C@H](NC(=O)[C@@H](CCCCNC(=O)c1cccnc1)NC(=O)[C@H](CCCCNC(=O)NN)NC(=O)[C@H](CO)NC(=O)[C@@H](Cc1cccc2ccccc12)NC(=O)CCc1ccc(F)cc1)C(=O)N[C@@H](CCCNC(=N)N)C(=O)N1CCC[C@H]1C(=O)N[C@H](C)C(N)=O [Compound 212, N-(3-(4-Fluorophenyl)propionyl)-D-1-Nal-Ser-Lys(N-epsilon-hydrazinecarbonyl)-D-Lys(N-epsilon-nicotinyl)-Leu-Arg-Pro-D-AlaNH2] ({Propanoyl(3-(4-F-phenyl))}-[d1Nal]SK(azaGly)[dK](Nicotinoyl)LRP[dA]-NH2)",33.9
3,"CC(C)C[C@H](NC(=O)[C@@H](CCCCNC(=O)N1CCOCC1)NC(=O)[C@H](Cc1ccc(O)cc1)N(C)C(=O)[C@H](CO)NC(=O)[C@@H](Cc1cccc2ccccc12)NC(=O)CCc1ccc(F)cc1)C(=O)N[C@@H](CCCCNC(C)C)C(=O)N1CCC[C@H]1C(=O)N[C@H](C)C(N)=O [Compound 213, N-(3-(4-Fluorophenyl)propionyl)-D-1-Nal-Ser-NMeTyr-D-Lys(N-epsilon-morpholnecarbonyl)-Leu-Lys(N-epsilon-isopropyl)-Pro-D-AlaNH2] ({Propanoyl(3-(4-F-phenyl))}-[d1Nal]S[NMeY][dK]([CO-Morpholide])L[Lys(iPr)]P[dA]-NH2)",14.8
4,"CC(=O)NCCCC[C@H](NC(=O)c1ccc(F)c(Cl)c1)C(=O)N[C@H](Cc1cccc2ccccc12)C(=O)N[C@@H](CO)C(=O)N(C)[C@@H](Cc1ccc(O)cc1)C(=O)N[C@H](CCCCN)C(=O)N[C@@H](CC(C)C)C(=O)N[C@@H](CCCNC(=N)N)C(=O)N1CCC[C@H]1C(=O)N[C@H](C)C(N)=O [Compound 214, N-alpha-(3-Chloro-4-Fluorobenzoyl)-Lys(N-epsilon-acetyl)-D-1-Nal-Ser-NMeTyr-D-Lys-Leu-Arg-Pro-D-AlaNH2] (X12-K(Ac)[d1Nal]S[NMeY][dK]LRP[dA]-NH2)",141
5,"CC(=O)NCCC[C@H](NC(=O)c1ccc(F)cc1)C(=O)N[C@H](Cc1cccc2ccccc12)C(=O)N[C@@H](CO)C(=O)N(C)[C@@H](Cc1ccc(O)cc1)C(=O)N[C@H](Cc1cncs1)C(=O)N[C@@H](CC(C)C)C(=O)N[C@@H](CCCCNC(C)C)C(=O)N1CCC[C@H]1C(=O)N[C@H](C)C(N)=O [Compound 215, N-alpha-(4-Fluorobenzoyl)-Orn(N-delta-acetyl)-D-1-Nal-Ser-NMeTyr-D-Thiaz-Leu-Lys(N-epsilon-isopropyl)-Pro-D-AlaNH2] ({Benzoyl(4-F)}-[Orn](Ac)[d1Nal]S[NMeY][X10]L[Lys(iPr)]P[dA]-NH2)",339
6,"CC(=O)NCCC[C@H](NC(=O)c1ccc(F)cc1)C(=O)N[C@H](Cc1cccc2ccccc12)C(=O)N[C@@H](CO)C(=O)N[C@@H](Cc1ccc(O)cc1)C(=O)N[C@H](CCCCNC(=O)c1cccnc1)C(=O)N[C@@H](CC(C)C)C(=O)N[C@@H](CCCNC(=N)N)C(=O)N1CCC[C@H]1C(=O)N[C@H](C)C(N)=O [Compound 217, N-alpha-(4-Fluorobenzoyl)-Orn(N-delta-acetyl)-D-1-Nal-Ser-Tyr-D-Lys(N-epsilon-nicotinyl)-Leu-Arg-Pro-D-AlaNH2] ({Benzoyl(4-F)}-[Orn](Ac)[d1Nal]SY[dK](Nicotinoyl)LRP[dA]-NH2)",1910
7,"CC(=O)NCCC[C@H](NC(=O)c1ccc(F)cc1)C(=O)N[C@H](Cc1cccc2ccccc12)C(=O)N[C@@H](CO)C(=O)N(C)[C@@H](Cc1ccc(O)cc1)C(=O)N[C@H](CCCCNC(=O)c1cccnc1)C(=O)N[C@@H](CC(C)C)C(=O)N[C@@H](CCCCNC(C)C)C(=O)N1CCC[C@H]1C(=O)N[C@H](C)C(N)=O [Compound 218, N-alpha-(4-Fluorobenzoyl)-Orn(N-delta-acetyl)-D-1-Nal-Ser-NMeTyr-D-Lys(N-epsilon-nicotinyl)-Leu-Lys(N-epsilon-isopropyl)-Pro-D-AlaNH2] ({Benzoyl(4-F)}-[Orn](Ac)[d1Nal]S[NMeY][dK](Nicotinoyl)L[Lys(iPr)]P[dA]-NH2)",832
8,"CC(C)C[C@H](NC(=O)[C@@H](Cc1c[nH]c2ccccc12)NC(=O)[C@H](Cc1ccc(O)cc1)N(C)C(=O)[C@H](CO)NC(=O)[C@@H](Cc1c[nH]c2ccccc12)NC(=O)[C@@H](Cc1cccc2ccccc12)NC(=O)N1CCOCC1)C(=O)N[C@@H](CCCNC(=N)N)C(=O)N1CCC[C@H]1C(=O)N[C@H](C)C(N)=O [Compound 220, (2-10)[N-(alpha-Morpholinocarbonyl)-D-1-Nal^2 -D-Trp^3,6 -NMeTyr^5 -D-Ala^10]LHRH] ({Morpholide-CO}-[d1Nal][dW]S[NMeY][dW]LRP[dA]-NH2)",170
9,"CC(C)C[C@H](NC(=O)[C@@H](Cc1c[nH]c2ccccc12)NC(=O)[C@H](Cc1ccc(O)cc1)N(C)C(=O)[C@H](CO)NC(=O)[C@@H](Cc1c[nH]c2ccccc12)NC(=O)[C@H](Cc1cccc2ccccc12)NC(=O)N1CCOCC1)C(=O)N[C@@H](CCCNC(=N)N)C(=O)N1CCC[C@H]1C(=O)N[C@H](C)C(N)=O [Compound 221, (2-10)[N-(alpha-Morpholinocarbonyl)-1-Nal^2 -D-Trp^3,6 -NMeTyr^5 -D-Ala^10]LHRH] ({Morpholide-CO}-[1Nal][dW]S[NMeY][dW]LRP[dA]-NH2)",204
10,"CC(C)C[C@H](NC(=O)[C@@H](Cc1c[nH]c2ccccc12)NC(=O)[C@H](Cc1ccc(O)cc1)NC(=O)[C@H](CO)NC(=O)[C@H](Cc1c[nH]c2ccccc12)NC(=O)[C@H](Cc1cccc2ccccc12)NC(=O)N1CCOCC1)C(=O)N[C@@H](CCCNC(=N)N)C(=O)N1CCC[C@H]1C(=O)N[C@H](C)C(N)=O [Compound 223, (2-10)[N-(alpha-Morpholinocarbonyl)-1-Nal^2 -D-Trp^6 -D-Ala^10]LHRH] ({Morpholide-CO}-[1Nal]WSY[dW]LRP[dA]-NH2)",26.9
11,"CC(C)C[C@H](NC(=O)[C@@H](CCCCN)NC(=O)[C@H](Cc1ccc(O)cc1)N(C)C(=O)[C@H](CO)NC(=O)[C@@H](Cc1cccs1)NC(=O)[C@H](Cc1ccc(Cl)cc1)NC(=O)N1CCOCC1)C(=O)N[C@@H](CCCNC(=N)N)C(=O)N1CCC[C@H]1C(=O)N[C@H](C)C(N)=O [Compound 230, (2-10)[N-(alpha-Morpholinocarbonyl)-4-Cl-Phe^2 -D-Thia^3 -NMeTyr^5 -D-Lys^6 -D-Ala^10]LHRH] ({Morpholide-CO}-[Phe(4-Cl)][d2Thi]S[NMeY][dK]LRP[dA]-NH2)",110
12,"CCNC(=O)[C@@H]1CCCN1C(=O)[C@H](CCCNC(=N)N)NC(=O)[C@H](CC(C)C)NC(=O)[C@@H](Cc1c[nH]c2ccccc12)NC(=O)[C@H](Cc1ccc(O)cc1)NC(=O)[C@H](CO)NC(=O)[C@@H](Cc1cccs1)NC(=O)[C@H](Cc1ccccc1)NC(=O)N1CCOCC1 [Compound 236, (2-9)[N-(alpha-Morpholinocarbonyl)-Phe^2 -D-Thia^3 -D-Trp^6 -Pro^9 NHEt]LHRH] ({Morpholide-CO}-F[d2Thi]SY[dW]LRP-NHEt)",708
13,"CCNC(=O)[C@@H]1CCCN1C(=O)[C@H](CCCNC(=N)N)NC(=O)[C@H](CC(C)C)NC(=O)[C@@H](Cc1c[nH]c2ccccc12)NC(=O)[C@H](Cc1ccc(O)cc1)NC(=O)[C@H](CO)NC(=O)[C@H](Cc1cccc2ccccc12)NC(=O)[C@H](Cc1ccccc1)NC(=O)N1CCOCC1 [Compound 237, (2-9)[N-(alpha-Morpholinocarbonyl)-Phe^2-1-Nal^3 -D-Trp^6 -Pro^9 NHEt]LHRH] ({Morpholide-CO}-F[1Nal]SY[dW]LRP-NHEt)",35.5
14,"CCNC(=O)N[C@@H](Cc1ccccc1)C(=O)N[C@H](Cc1cccc2ccccc12)C(=O)N[C@@H](CO)C(=O)N[C@@H](Cc1ccc(O)cc1)C(=O)N[C@H](Cc1c[nH]c2ccccc12)C(=O)N[C@@H](CC(C)C)C(=O)N[C@@H](CCCNC(=N)N)C(=O)N1CCC[C@H]1C(=O)NCC [Compound 238, (2-9)[N-(alpha-Ethylaminocarbonyl)-Phe^2 -D-1-Nal^3 -D-Trp^6 -Pro^9 NHEt]LHRH] ({NHEt-CO}-F[d1Nal]SY[dW]LRP-NHEt)",251
15,"CCNC(=O)N[C@@H](Cc1ccccc1)C(=O)N[C@@H](Cc1cccc2ccccc12)C(=O)N[C@@H](CO)C(=O)N[C@@H](Cc1ccc(O)cc1)C(=O)N[C@H](Cc1c[nH]c2ccccc12)C(=O)N[C@@H](CC(C)C)C(=O)N[C@@H](CCCNC(=N)N)C(=O)N1CCC[C@H]1C(=O)NCC [Compound 239, (2-9)[N-(alpha-Ethylaminocarbonyl)-Phe^2-1-Nal^3 -D-Trp^6 -Pro^9 NHEt]LHRH] ({NHEt-CO}-F[1Nal]SY[dW]LRP-NHEt)",832
